Measurements as given in article PMC10537087, “Evaluating Known Zika Virus NS2B-NS3 Protease Inhibitor Scaffolds via In Silico Screening and Biochemical Assays” (Pharmaceuticals, 2023).
Like-named read-outs stand apart in the source and are kept apart here.

Legend:
ZIKV NS2B-NS3pro [1] = target: T1, ZIKV NS2B-NS3pro (Zika virus, UniProt A0A024B7W1, C1582S/C1645S/R1467A/R1531G); conditions: cited from earlier work
[2] = Cytotoxicity MTT assay (CC50); conditions: African green monkey, Vero (ATCC CCL-81) cells
Method: (§1) The Vero (ATCC® CCL-81™) cell line was used for the cytotoxicity assays and antiviral activity evaluation against ZIKV. Cells were cultured in Eagle’s minimum essential media (MEM) (Cultilab, Campinas, Brazil). The media was supplemented with 5% fetal bovine serum (FBS) (Cultilab, Brazil), in addition to 100 IU/mL penicillin (Cellofarm, Rio De Janeiro, Brazil), 100 μg/mL streptomycin (Merck, Darmstadt, Germany), and 0.25 μg/mL amphotericin B (Cultilab, Brazil).
(§2) Cells were seeded in 96-well microplates (4.0 × 10^4 cells per well) and incubated at 37 °C and 5% CO2 for 24 h. Then, 200 µL of MEM with 1% FBS containing a serial dilution of the compounds (100 to 12.5 µM) was added. As vehicle control, a serial dilution of DMSO was used. After 72 h of incubation under the same conditions, 100 μL of 3-(4,5-dimethylthiazol-2-yl)-2,5-diphenyltetrazolium bromide (MTT; ThermoFischer Scientific, Waltham, MA, USA) [76] diluted in MEM (0.5 mg/mL) was added to each well and incubated for 3 h. The media was removed, and 100 μL of DMSO was added to each well to solubilize formazan crystals and shaken for 20 min. The absorbance was read at 570 nm using a spectrophotometer (VersaMax, Molecular Devices, San Jose, CA, USA). The percentages of inhibition of cell viability were calculated as the ratio between the absorbance of the compound-treated cells and cells with only the vehicle. […] Linear regression (LR) was used for the analysis, considering results with r^2 > 0.9. All conditions were tested in triplicate and one independent assay (n = 3 data points).

[3] = test system: Vero (ATCC CCL-81) cell line; assay: Cytotoxicity MTT assay (CC50); conditions: Vero cells
Method: as §1, §2

ZIKV NS2B-NS3pro [4] = target: T1, ZIKV NS2B-NS3pro; assay: ZIKV NS2B-NS3pro inhibitory assay with fluorogenic substrate Bz-Nle-Lys-Lys-Arg-AMC; assay type: biochemical; conditions: for % ZIKV NS2B/NS3pro Inhibition [Enzyme] = 0.2 nM / % ZIKV NS2B/NS3pro Inhibition [Enzyme] = 2 nM: CHAPS 1 mM; for % ZIKV NS2B/NS3pro Inhibition (100 µM) 0.001% Triton / % ZIKV NS2B/NS3pro Inhibition (100 µM) 0.01% Triton / % ZIKV NS2B/NS3pro Inhibition (100 µM) BSA / % ZIKV NS2B/NS3pro Inhibition (100 µM) With Preincubation / % ZIKV NS2B/NS3pro Inhibition (100 µM) Without Preincubation: compound 100 µM; for % ZIKV NS2B/NS3pro Inhibition (100 µM) 0.001% Triton: 0.001% Triton X-100, no Tween-20; for % ZIKV NS2B/NS3pro Inhibition (100 µM) 0.001% Triton / % ZIKV NS2B/NS3pro Inhibition (100 µM) 0.01% Triton: 10 min preincubation; for % ZIKV NS2B/NS3pro Inhibition (100 µM) 0.01% Triton: 0.01% Triton X-100, no Tween-20; for % ZIKV NS2B/NS3pro Inhibition (100 µM) BSA: 10 min pre-incubation with BSA 1 mg/mL before enzyme; for % ZIKV NS2B/NS3pro Inhibition (100 µM) With Preincubation: 10 min preincubation with enzyme; for % ZIKV NS2B/NS3pro Inhibition (100 µM) Without Preincubation: no preincubation; for Hill Slope Replica 1 / Hill Slope Replica 2: from dose-response curve
cruzain = cruzain (Trypanosoma cruzi, UniProt P25779); assay: Cruzain counter-screening enzyme assay (Z-Phe-Arg-AMC); assay type: biochemical; conditions: 10 min preincubation, pH 5.5
Chain of cruzain (P25779 123-467): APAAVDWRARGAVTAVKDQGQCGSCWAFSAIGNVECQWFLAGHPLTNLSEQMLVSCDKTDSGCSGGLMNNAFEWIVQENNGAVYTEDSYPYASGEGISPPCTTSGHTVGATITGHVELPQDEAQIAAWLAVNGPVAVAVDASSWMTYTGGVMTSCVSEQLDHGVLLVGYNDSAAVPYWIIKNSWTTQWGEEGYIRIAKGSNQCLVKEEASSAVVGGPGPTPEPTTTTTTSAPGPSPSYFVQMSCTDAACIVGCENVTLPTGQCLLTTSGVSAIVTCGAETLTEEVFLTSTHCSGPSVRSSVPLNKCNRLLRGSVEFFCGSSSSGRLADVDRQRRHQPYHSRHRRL
Method: Cruzain activity was measured by monitoring the fluorescence signal obtained by cleavage of the fluorogenic substrate Z-Phe-Arg-AMC, following a well-established protocol. The fluorescence intensity (excitation λ: 340 nm; emission λ: 440 nm) was monitored for at least 5 min. All assays were performed in sodium acetate 0.1 M at pH 5.5 and β-mercaptoethanol 10 mM. The final protein concentration was 0.1 nM, and the substrate concentration was 2.5 µM. Each condition was tested in triplicate and two independent assays (n = 6 data points), with preincubation of the enzyme for 10 min at 25 °C. Assays were performed at compound concentrations near the IC50 value against ZIKV NS2B-NS3pro.

[5] = Solubility in cruzain assay buffer; assay type: physicochemical; conditions: sodium acetate 0.1 M pH 5.5, β-mercaptoethanol 10 mM
[6] = compound 25 µM (close to IC50), enzyme 0.2 nM

Row | SMILES | CC50 at 72 h [2] [µM] | Cell viability as percentage of cell control (mean absorbance / CELL) ([3]; compound 12.5 µM) | Cell viability as percentage of cell control (mean absorbance / CELL) ([3]; compound 25 µM) | Cell viability as percentage of cell control (mean absorbance / CELL) ([3]; compound 50 µM) | Cell viability as percentage of cell control (mean absorbance / CELL) ([3]; compound 100 µM) | % ZIKV NS2B/NS3pro Inhibition (100 µM) 0.001% Triton (ZIKV NS2B-NS3pro [4]) [%] | % ZIKV NS2B/NS3pro Inhibition (100 µM) 0.01% Triton (ZIKV NS2B-NS3pro [4]) [%] | % ZIKV NS2B/NS3pro Inhibition (100 µM) BSA (ZIKV NS2B-NS3pro [4]) [%] | % ZIKV NS2B/NS3pro Inhibition (100 µM) With Preincubation (ZIKV NS2B-NS3pro [4]; 0.005% Tween-20, enzyme 0.2 nM) [%] | % ZIKV NS2B/NS3pro Inhibition (100 µM) Without Preincubation (ZIKV NS2B-NS3pro [4]; 0.005% Tween-20) [%] | Hill Slope Replica 1 (ZIKV NS2B-NS3pro [4]) | Hill Slope Replica 2 (ZIKV NS2B-NS3pro [4]) | solubility in the cruzain assay buffer [5] | % ZIKV NS2B/NS3pro Inhibition [Enzyme] = 0.2 nM (ZIKV NS2B-NS3pro [4]; [6]) [%] | % ZIKV NS2B/NS3pro Inhibition [Enzyme] = 2 nM (ZIKV NS2B-NS3pro [4]; compound 25 µM (close to IC50)) [%] | inhibition at 25 µM (cruzain; compound 25 µM) [%] | also measured
1 | COc1ccc(S(=O)(=O)Nc2ccccc2C(=O)Nc2nc3ccccc3s2)cc1 [LEE-2] |  |  |  |  |  |  |  |  |  |  |  |  |  |  |  |  | cause of inhibition after resynthesis (ZIKV NS2B-NS3pro [1]; parallel study, ref [54]): due to colloidal aggregation; mode of inhibition (ZIKV NS2B-NS3pro [1]; ref [33]): competitive inhibitors
2 | O=C(Nc1nc2cccc(Cl)c2[nH]1)c1ccccc1NS(=O)(=O)c1ccc(F)cc1 [Compound 5] | < 12.5 | 44.8735 | 19.4433 | 14.9121 | 15.1318 | 93 ± 3 | 6 ± 8 | 94 ± 8 | 100 ± 0 | 100 ± 0 | 3.333 | 1.731 |  |  |  |  | % ZIKV NS2B/NS3pro Inhibition [Enzyme] = 0.2 nM (ZIKV NS2B-NS3pro [4]; compound 10 µM (close to IC50), enzyme 0.2 nM): 62 ± 0.1%; % ZIKV NS2B/NS3pro Inhibition [Enzyme] = 2 nM (ZIKV NS2B-NS3pro [4]; compound 10 µM (close to IC50)): 23 ± 8%; inhibition at 10 µM (cruzain; compound 10 µM): 69 ± 24%
3 | Cc1cc(C(=O)c2ccccc2NS(=O)(=O)c2ccc(F)cc2)nn1-c1ccccc1 [Compound 13] | < 12.5 | 41.6898 | 25.5093 | 21.6435 | 12.8704 | 100 ± 0 | 45 ± 9 | 57 ± 15 | 95 ± 2 | 100 ± 1 | 5.057 | 5.334 | insoluble | 43 ± 0.1 | 26 ± 10 |  | IC50 (ZIKV NS2B-NS3pro [4]; 0.005% Tween-20, enzyme 0.2 nM, substrate 44 µM, read-out: ZIKV NS2B/NS3pro IC50): 28 ± 1 µM; IC50 (ZIKV NS2B-NS3pro [4]; one value per independent assay (two curves per compound), read-out: IC50 of the individual curves for NS2B-NS3pro inhibitors (Figure 3)): 29 µM
4 | O=C(Nc1nc2cccnc2[nH]1)c1ccccc1NS(=O)(=O)c1ccc(Cl)cc1 [Compound 1] | 22 ± 0.79 | 61.7079 |  | 24.3591 | 20.1848 | 93 ± 8 | 47 ± 34 | 69 ± 6 | 100 ± 0 | 100 ± 0 | 3.046 | 1.585 |  | 45 ± 0.1 | 26 ± 7 | 97 ± 7 | 
5 | O=C(Nc1nc2ccccc2[nH]1)c1ccccc1NS(=O)(=O)c1ccc(Cl)cc1 [Compound 6] | 38.4 ± 2.18 | 63.7676 | 61.7079 | 41.6329 | 48.6633 | 89 ± 6 | 7 ± 9 | 55 ± 20 | 100 ± 0 | 99 ± 2 | 6.697 | 4.362 | insoluble | 99 ± 0.4 | 66 ± 21 |  | 
6 | O=C(Nc1nc2cnccc2[nH]1)c1ccccc1NS(=O)(=O)c1ccc(Cl)cc1 [Compound 4] | 57.1 ± 1.86 | 84.584 | 66.5687 | 49.8167 | 25.183 | 93 ± 8 | 25 ± 15 | 45 ± 4 | 100 ± 0 | 100 ± 0 | 0.8047 | 0.5347 |  | 44 ± 0.2 | 29 ± 8 | -12 ± 9.1 | % Cruzain Inhibition (cruzain; compound 25 µM): no inhibitory activity
